Tests used:
[1] = system: aldose reductase; assay: Lens polyol (dulcitol) accumulation in galactose-fed rats; assay type: in vivo, rat (male albino, Spraque-Dawley); conditions: for Mean Polyol Accumulation, Micromoles Dulcitol/g of Tissue: rat lens 24 h after third dose
Experimental: As discussed hereinabove, sugar cataract formation is a frequent complication of the diabetic patient and their occurrence is apparent even in patients where diabetes appears controlled. […] The accumulation of polyols in the lens tissue results in osmotic and histological changes which are characteristic of sugar cataracts. […] Control rats received a 10% galactose solution at a dose level of 10 ml/kg. daily for three days. The total dose was 1 g/kg daily. Six animals per control group were used. Groups receiving galactose plus test drug contained three rats. The routine starting dose of a test drug was 100 mg/kg. orally for three days with galactose given simultaneously. The test drug was administered at a volume of 5 ml/kg. The test drug solution and the galactose solution were administered together. Twenty-four hours after the third dose the lens of the eyeballs were carefully removed from the sacrificed rats and the polyol content of the lens determined according to West and Rapport, Proc. Soc. Exp. Biol. Med. 70, 141-142 (1949).

[2] = biological target: T1, Aldose reductase isolated from bovine lens (Bos taurus, UniProt P16116); assay: Inhibition of aldose reductase isolated from bovine lens (Lineweaver-Burk); assay type: biochemical; conditions: procedure of Lineweaver and Burk, read-out: Amount which inhibits the maximum velocity of the aldose reductase activity by 50% (IC50)
T1 construct: Aldose reductase was isolated from bovine lens; from tissue; host or cells: bovine lens
Experimental: The ability of 4,5-dihydro-4H-pyrrolo[3,2,1-ij]quinoline-1,2-dione to inhibit aldose reductase activity was determined according to the procedure of Lineweaver, H., and Burk D., The Determination of Enzyme Dissociation Constants, J. Am. Chem. Soc. 658-666 (1934).
Aldose reductase was isolated from bovine lens and the activity of the enzyme determined according to Gabbay, R. H. and Kinoshita, J. H., Methods in Enzymology, Vol. XLI (B) 37:159.

Row | SMILES | Mean Polyol Accumulation, Micromoles Dulcitol/g of Tissue ([1]; Experiment No. 1, 100 mg/kg PO daily for three days with galactose 1 g/kg daily, galactose controls 3.7) | Mean Polyol Accumulation, %± Control ([1]; Experiment No. 1, 100 mg/kg PO daily for three days with galactose, rat lens, vs galactose controls) | Mean Polyol Accumulation, %± Control ([1]; po, 100 mg/kg, 72 h) | IC50 [2] | Mean Polyol Accumulation, Micromoles Dulcitol/g of Tissue ([1]; Experiment No. 1, 200 mg/kg PO daily for three days with galactose 1 g/kg daily, galactose controls 3.7) | Mean Polyol Accumulation, %± Control ([1]; Experiment No. 1, 200 mg/kg PO daily for three days with galactose, rat lens, vs galactose controls) | Mean Polyol Accumulation, Micromoles Dulcitol/g of Tissue ([1]; Experiment No. 2, 100 mg/kg PO daily for three days with galactose 1 g/kg daily, galactose controls 4.3) | Mean Polyol Accumulation, %± Control ([1]; Experiment No. 2, 100 mg/kg PO daily for three days with galactose, rat lens, vs galactose controls)
1 | O=C1C(=O)N2CCCc3cccc1c32 [AHR-5191, 5,6-dihydro-4H-pyrrolo[3,2,1-ij]quinoline-1,2-dione] | 2.1 Micromoles Dulcitol/g of Tissu | -43.2% | -37.0% | 80 µM | – | – | – | –
2 | O=C(O)CN1C(=O)c2cccc3cccc(c23)C1=O [Ay-22,284, 1,3-dioxo-1H-benz[de]isoquinoline-2(3H) acetic acid] | – | – | – | 90 µM | 2.7 Micromoles Dulcitol/g of Tissu | -27% | 5.9 Micromoles Dulcitol/g of Tissu | +37.2%

— patent US4151282A, “Compositions and methods for treating diabetic complications” (A. H. Robins Company, Inc., priority 1977, dated 1979)
